We go through six compounds from patent US20050256037A1, “Antibacterial amide macrocyles” (Bayer HealthCare AG, priority 2003, published 2005).

SMILES strings stand for the structures. Values after ≈ are worked out from the molar mass of the structure shown. Where a name gives a salt, the structure may show the parent alone.

For test [1], the system named is S. aureus T17. The test can be described thus: MIC, alternative method: agar dilution test with 20% defibrinated horse blood. In kind it is cell-based. Particulars: Staphylococcus aureus. The method, then:
(§1) Alternative Method for Determining the Minimum Inhibitory Concentration (MIC)
(§2) The minimum inhibitory concentration (MIC) is the minimum concentration of an antibiotic with which the growth of a test microbe is inhibited over 18-24 h. The inhibitor concentration can be determined by standard microbiological methods using modified medium in an agar dilution test (see, for example, the National Committee for Clinical Laboratory Standards. Methods for dilution antimicrobial susceptibility tests for bacteria that grow aerobically; approved standard-fifth edition. NCCLS document M7-A5 [ISBN 1-56238-394-9]. NCCLS, 940 West Valley Road, Suite 1400, Wayne, Pa. 19087-1898 USA, 2000). The bacterial microbes are cultivated on 1.5% agar plates containing 20% defibrinated horse blood. The test microbes, which are incubated on Columbia blood agar plates (Becton-Dickinson) overnight, are diluted in PBS, adjusted to a microbe count of about 5×10^5 microbes/ml and placed as drops (1-3 μl) on test plates. The test substances contain various dilutions of the test substances (1:2 dilution stages). The cultures are incubated at 37° C. in the presence of 5% CO2 for 18-24 hours.
(§3) The lowest concentration of each substance at which no visible bacterial growth occurs is defined as the MIC and is reported in μg/ml.
A general note: In agar dilution the substance is mixed into plates at graded concentrations.

For test [2], the system named is S. aureus E33. The test is described as above. Format: cell-based. Particulars: Staphylococcus aureus. The method, then:
as §1, §2, §3

Test [3] deals with E. faecium L4001. Described as above. In kind it is cell-based. Particulars: Enterococcus faecium. As for the experimental part:
as §1, §2, §3

Test [4] has as its target S. aureus 133 Translation. The test can be described thus: S. aureus in vitro transcription-translation assay (S30 extract, firefly luciferase reporter). Format: biochemical. The source says:
In vitro Transcription-Translation with S. aureus Extracts
Construction of an S. aureus Luciferase Reporter Plasmid
A reporter plasmid which can be used in an in vitro transcription-translation assay from S. aureus is constructed by using the plasmid pBESTluc (Promega Corporation, USA). The E. coli tac promoter present in this plasmid in front of the firefly luciferase is replaced by the capA1 promoter with appropriate Shine-Dalgarno sequence from S. aureus. The primers CAPFor 5′-CGGCCAAGCTTACTCGGAT-[…] […]-3′ and CAPRev 5′-[…]-3′ are used for this. The primer CAPFor contains the capA1 promoter, the ribosome binding site and the 5′ region of the luciferase gene. After PCR using pBESTluc as template it is possible to isolate a PCR product which contains the firefly luciferase gene with the fused capA1 promoter. This is, after restriction with ClaI and HindIII, ligated into the vector pBESTluc which has likewise been digested with ClaI and HindIII. The resulting plasmid pla is able to replicate in E. coli and be used as template in the S. aureus in vitro transcription-traslation assay.
Preparation of S30 Extracts from S. aureus
Six litres of BHI medium are inoculated with a 250 ml overnight culture of an S. aureus strain and allowed to grow at 37° C. until the OD600 run is 2-4. The cells are harvested by centrifugation and washed in 500 ml of cold buffer A (10 mM Tris acetate, pH 8.0, 14 mM Magnesium acetate, 1 mM DTT, 1 M KCl). After renewed centrifugation, the cells are washed in 250 ml of cold buffer A with 50 mM KCl, and the resulting pellets are frozen at −20° C. for 60 min. The pellets are thawed on ice in 30 to 60 min and taken up to a total volume of 99 ml in buffer B (10 mM Tris acetate, pH 8.0, 20 mM Magnesium acetate, 1 mM DTT, 50.mM KCl). 1.5 ml portions of lysostaphin (0.8 mg/ml) in buffer B are introduced into 3 precooled centrifuge cups and each mixed with 33 ml of the cell suspension. The samples are incubated at 37° C., shaking occasionally, for 45 to 60 min, before 150 μl of a 0.5 M DTT solution are added. The lysed cells are centrifuged at 30 000×g and 4° C. for 30 min. The cell pellet is taken up in buffer B and then centrifuged again under the same conditions, and the collected supernatants are combined. The supernatants are centrifuged again under the same conditions, and 0.25 volume of buffer C (670 mM Tris acetate, pH 8.0, 20 mM Magnesium acetate, 7 mM Na3 phosphoenolpyruvate, 7 mM DTT, 5.5 mM ATP, 70 μM amino acids (complete from Promega), 75 μg of pyruvate kinase (Sigma, Germany)/ml are added to the upper ⅔ of the supernatant. The samples are incubated at 37° C. for 30 min. The supernatants are dialysed against 2 l of dialysis buffer (10 mM Tris acetate, pH 8.0, 14 mM Magnesium acetate, 1 mM DTT, 60 mM Potassium acetate) in a dialysis tube with a 3500 Da cut-off with one buffer change at 4° C. overnight. The dialysate is concentrated to a protein concentration of about 10 mg/ml by covering the dialysis tube with cold PEG 8000 powder (Sigma, Germany) at 4° C. The S30 extracts can be stored in aliquots at −70° C.
Determination of the IC50 in the S. aureus in vitro Transcription-Translation Assay Inhibition of protein biosynthesis of the compounds can be shown in an in vitro transcription-translation assay. The assay is based on the cell-free transcription and translation of firefly luciferase using the reporter plasmid pla as template and cell-free S30 extracts obtained from S. aureus. The activity of the resulting luciferase can be detected by luminescence measurement.
The amount of S30 extract or plasmid pla to be employed must be tested anew for each preparation in order to ensure an optimal concentration in the assay. 3 μl of the substance to be tested, dissolved in 5% DMSO, are introduced into an MTP. Then 10 μl of a suitably concentrated plasmid solution pla are added. […]

The test system of test [5] is S. aureus T17. The test can be described thus: MIC, liquid dilution test in minimal medium (96-well microtitre plate). Format: cell-based. The method, then:
(§4) Determination of the Minimum Inhibitory Concentration (MIC)
(§5) The minimum inhibitory concentration (MIC) is the minimum concentration of an antibiotic with which the growth of a test microbe is inhibited over 18-24 h. The inhibitor concentration can in these cases be determined by standard microbiological methods (see, for example, The National Committee for Clinical Laboratory Standards. Methods for dilution antimicrobial susceptibility tests for bacteria that grow aerobically; approved standard-fifth edition. NCCLS document M7-A5 [ISBN 1-56238-394-9]. NCCLS, 940 West Valley Road, Suite 1400, Wayne, Pa. 19087-1898 USA, 2000). The MIC of the compounds of the invention is determined in the liquid dilution test on the 96-well microtitre plate scale. The bacterial microbes are cultivated in a minimal medium (18.5 mM Na2HPO4, 5.7 mM KH2PO4, 9.3 mM NH4Cl, 2.8 mM MgSO4, 17.1 mM NaCl, 0.033 μg/ml thiamine hydrochloride, 1.2 μg/ml nicotinic acid, 0.003 μg/ml biotin, 1% glucose, 25 μg/ml of each proteinogenic amino acid with the exception of phenylalanine; [H.-P. Kroll; unpublished]) with addition of 0.4% BH broth (test medium). In the case of Enterococcus faecium L4001, heat-inactivated fetal calf serum (FCS; GibcoBRL, Germany) is added to the test medium in a final concentration of 10%. Overnight cultures of the test microbes are diluted to an OD578 of 0.001 (to 0.01 in the case of enterococci) in fresh test medium, and incubated 1:1 with dilutions of the test substances (1:2 dilution steps) in test medium (200 μl final volume). The cultures are incubated at 37° C. for 18-24 hours; enterococci in the presence of 5% CO2.
(§6) The lowest substance concentration in each case at which bacterial growth was no longer visible is defined as the MIC. […] The compounds show a graded antibacterial effect against most of the test microbes.
The S. aureus strain T17 is isolated in vivo. CFW1 mice are infected intraperitoneally with 4×10^7 S. aureus 133 cells per mouse. 0.5 h after the infection, the animals are treated intravenously with 50 mg/kg biphenomycin B. The kidneys are removed from the surviving animals on day 3 after the infection. After homogenization of the organs, the homogenates are plated out as described for RN4220Bi^R on antibiotic-free and antibiotic-containing agar plates and incubated at 37° C. overnight. […] About 20 of these colonies are tested for the biphenomycin B MIC, and a colony with an MIC of >50 μM is selected for further cultivation, and the strain is referred to a T17.

The test system of test [6] is S. aureus E33. Described as above. Format: cell-based. The following applies: Staphylococcus aureus, E33, read-out: MIC S. aureus E33. The method, then:
as §4, §5, §6

Test [7] relates to E. faecium L4001. Described as above. Particulars: Enterococcus faecium, L4001, read-out: MIC E. faecium L4001. In kind it is cell-based. The method, then: as §4, §5, §6
In test [8] the test system is S. aureus RN4220Bi^R. Briefly: MIC of the isolated resistant colony. In kind it is cell-based. The following applies: colony selected as strain RN4220Bi^R. As for the experimental part:
The S. aureus strain RN4220Bi^R is isolated in vitro. […] Whereas about 1×10^7 cells grow on the antibiotic-free plate, about 100 colonies grow on the antibiotic-containing plate, corresponding to a resistance rate of 1×10^−5. Some of the colonies grown on the antibiotic-containing plate are tested for the biphenomycin B MIC. One colony with an MIC of >50 μM is selected for further use, and the strain is referred to as RN4220Bi^R.

For test [9], the system named is S. aureus 133. Briefly: Systemic infection with S. aureus 133 (mouse sepsis model). Format: in vivo. The following applies: female CFW1 mice, i.p. infection, i.v. therapy 30 minutes after infection, survival recorded for 6 days.
Method: Systemic Infection with S. aureus 133
For this purpose, S. aureus 133 cells are cultured overnight in BH broth (Oxoid, Germany). The overnight culture was diluted 1:100 in fresh BH broth and expanded for 3 hours. The bacteria which are in the logarithmic phase of growth are centrifuged and washed twice with buffered physiological saline solution. A cell suspension in saline solution with an extinction of 50 units is then adjusted in a photometer (Dr Lange LP 2W). After a dilution step (1:15), this suspension is mixed 1:1 with a 10% strength mucine suspension. 0.2 ml of this infection solution is administered i.p. per 20 g of mouse. This corresponds to a cell count of about 1-2×10 microbes/mouse. The i.v. therapy takes place 30 minutes after the infection. Female CFW1 mice are used for the infection test. The survival of the animals is recorded for 6 days. The animal model is adjusted so that untreated animals die within 24 h after the infection.
Setting [10] is: T17, read-out: MIC S. aureus T17.
[11] abbreviates: E33, read-out: MIC S. aureus E33.
[12] abbreviates: L4001, read-out: MIC E. faecium L4001.
Setting [13] is: Staphylococcus aureus, T17, read-out: MIC S. aureus T17.
[14] abbreviates: T17, Table B, agar dilution, 20% defibrinated horse blood, read-out: MIC S. aureus T17.
Where [15] appears, read: E33, Table B, agar dilution, 20% defibrinated horse blood, read-out: MIC S. aureus E33.
The mark [16] stands for this setting: L4001, Table B, agar dilution, 20% defibrinated horse blood, read-out: MIC E. faecium L4001.

Broadly, the MIC is the smallest concentration in the dilution series that meets the test's criterion for growth inhibition. For orientation: IC50 means the concentration at which inhibition is half-maximal.

With `CN1C(=O)[C@H](CCCN)NC(=O)[C@@H](N)Cc2cc(ccc2O)-c2ccc(O)c(c2)C[C@H]1C(=O)NCCN` [Example 3, (8S,11S,14S)-14-Amino-N-(2-aminoethyl)-11-(3-aminopropyl)-5,17-dihydroxy-9-methyl-10,13-dioxo-9,12-diazatricyclo[14.3.1.1^2,6]henicosa-1(20),2(21),3,5,16,18-hexaene-8-carboxamide trihydrochloride], the MIC in [1] (setting [10]) was 4 µg/mL; in [2] (setting [11]) it was 2 µg/mL; in test [3] (setting [12]) it was 16 µg/mL; in [5] (setting [13]) it was 3.1 µM; in test [6] it was 1.6 µM; in test [7], 25 µM. For the same compound, the IC50 in test [4] (Table A) and in [4] (Table B) was 0.35 µM in each case.
Take `NC[C@H](O)C[C@@H]1NC(=O)[C@@H](N)Cc2cc(ccc2O)-c2ccc(O)c(c2)C[C@@H](C(=O)O)NC1=O` [biphenomycin B, reference compound]: the MIC in [8] was greater than 50 µM; in test [5] (colony selected as strain T17, isolated from kidney of treated mice), greater than 50 µM.
For the compound `NCCCNCCCNC(=O)[C@@H]1Cc2cc(ccc2O)-c2ccc(O)c(c2)C[C@H](N)C(=O)N[C@@H](CCCN)C(=O)N1` [Example 42, (8S,11S,14S)-14-amino-11-(3-aminopropyl)-N-{3-[(3-aminopropyl)amino]propyl}-5,17-dihydroxy-10,13-dioxo-9,12-diazatricyclo[14.3.1.1^2,6]henicosa-1(20),2(21),3,5,16,18-hexaene-8-carboxamide], the results for the MIC in [1] (setting [14]), in [2] (setting [15]) and in test [3] (setting [16]) were 2 µg/mL (≈ 3.51 µM), 1 µg/mL (≈ 1.76 µM) and 4 µg/mL (≈ 7.02 µM), respectively. The compound also came in with an IC50 in test [4] (Table B) of 0.4 µM.
Turning to `NCCC[C@H](N)CNC(=O)[C@@H]1Cc2cc(ccc2O)-c2ccc(O)c(c2)C[C@H](N)C(=O)N[C@@H](CCCN)C(=O)N1` [Example 45, (8S,11S,14S)-14-amino-11-(3-aminopropyl)-N-[(2S)-2,5-diaminopentyl]-5,17-dihydroxy-10,13-dioxo-9,12-diazatricyclo[14.3.1.1 ^2,6]henicosa-1(20),2(21),3,5,16,18,-hexaene-8-carboxamide], the MIC was found to be 2 µg/mL (≈ 3.6 µM) in test [1] (setting [10]), 0.5 µg/mL (≈ 0.9 µM) in test [2] (setting [11]) and 2 µg/mL (≈ 3.6 µM) in [3] (setting [12]). In addition, 0.1 µM corresponded to half-maximal inhibition in test [4] (Table B) (IC50).
Consider `NCCC[C@@H]1NC(=O)[C@@H](N)Cc2cc(ccc2O)-c2ccc(O)c(c2)C[C@@H](C(=O)NCCN(CCN)CCN)NC1=O` [Example 43, (8S,11S,14S)-14-amino-11-(3-aminopropyl)-N-{2-[bis(2-aminoethyl)amino]ethyl}-5,17-dihydroxy-10,13-dioxo-9,12-diazatricyclo[14.3.1.1^2,6]henicosa-1(20),2(21),3,5,16,18-hexaene-8-carboxamide], for which the MIC in test [1] (setting [14]) is 2 µg/mL (≈ 3.42 µM); in [2] (setting [15]), 1 µg/mL (≈ 1.71 µM); in test [3] (setting [16]), 16 µg/mL (≈ 27.4 µM). Besides, in test [4] (Table B), half-maximal inhibition (IC50) was put at 0.15 µM.
Take `CN1C(=O)[C@H](C[C@@H](O)CN)NC(=O)[C@@H](N)Cc2cc(ccc2O)-c2ccc(O)c(c2)C[C@H]1C(=O)NC1CCNCC1` [Example 2, (8S,11S,14S)-14-Amino-11-[(2R)-3-amino-2-hydroxypropyl]-5,17-dihydroxy-9-methyl-10,13-dioxo-N-piperidin-4-yl-9,12-diazatricyclo[14.3.1.1^2,6]henicosa-1(20),2(21),3,5,16,18-hexaene-8-carboxamide trihydrochloride]: in [9], the “therapeutic effect ED100” value was 1.25 mg/kg. Besides, in test [4] (Table A), the IC50 was 0.2 µM. Besides, the MIC in test [5] (setting [13]) amounted to 6.3 µM; in test [6], 1.6 µM; in [7], 25 µM.
